Results taken from patent publication US9061966B2, “Cyclopropylamine inhibitors of oxidases” (ORYZON GENOMICS S.A., priority 2010, dated 2015).
Counter-ions that a name gives are not always drawn.

Legend:
Format in all cases: biochemical
[1] = target: T1, Human recombinant LSD1 protein (Homo sapiens, UniProt O60341); assay: Inhibition of LSD1 (Amplex Red peroxide/peroxidase-coupled demethylase assay, di-methylated H3-K4 peptide substrate); conditions: Ki (IC50) estimated at half of the maximum activity; range class
T1 construct: purchased BPS Bioscience Inc
Source text: The compounds of the invention can be tested for their ability to inhibit LSD1. The ability of the compounds of the invention to inhibit LSD1 can be tested as follows. Human recombinant LSD1 protein was purchased from BPS Bioscience Inc. In order to monitor LSD1 enzymatic activity and/or its inhibition rate by our inhibitor(s) of interest, di-methylated H3-K4 peptide (Millipore) was chosen as a substrate. The demethylase activity was estimated, under aerobic conditions, by measuring the release of H2O2 produced during the catalytic process, using the Amplex® Red peroxide/peroxidase-coupled assay kit (Invitrogen).
Briefly, a fixed amount of LSD1 was incubated on ice for 15 minutes, in the absence and/or in the presence of various concentrations of inhibitor (e.g., from 0 to 75 μM, depending on the inhibitor strength). Tranylcypromine (Biomol International) was used as a control for inhibition. Within the experiment, each concentration of inhibitor was tested in triplicate. After leaving the enzyme interacting with the inhibitor, 12.5 μM of di-methylated H3-K4 peptide was added to each reaction and the experiment was left for 1 hour at 37° C. in the dark. The enzymatic reactions were set up in a 50 mM sodium phosphate, pH 7.4 buffer. At the end of the incubation, Amplex® Red reagent and horseradish peroxidase (HPR) solution were added to the reaction according to the recommendations provided by the supplier (Invitrogen), and left to incubate for 30 extra minutes at room temperature in the dark. A 1 μM H2O2 solution was used as a control of the kit efficiency. The conversion of the Amplex® Red reagent to resorufin due to the presence of H2O2 in the assay, was monitored by fluorescence (excitation at 540 nm, emission at 590 nm) using a microplate reader (Infinite 200, Tecan). Arbitrary units were used to measure level of H2O2 produced in the absence and/or in the presence of inhibitor.
The maximum demethylase activity of LSD1 was obtained in the absence of inhibitor and corrected for background fluorescence in the absence of LSD1. The Ki (IC50) of each inhibitor was estimated at half of the maximum activity.

[2] = target: T2, Human recombinant monoamine oxidase MAO-B (Homo sapiens, UniProt P27338); assay: Monoamine oxidase assay, kynuramine fluorescence, MAO-B; conditions: Ki (IC50) determined at Vmax/2; range class
T2 construct: purchased Sigma Aldrich
T2 sequence (P27338 1-520): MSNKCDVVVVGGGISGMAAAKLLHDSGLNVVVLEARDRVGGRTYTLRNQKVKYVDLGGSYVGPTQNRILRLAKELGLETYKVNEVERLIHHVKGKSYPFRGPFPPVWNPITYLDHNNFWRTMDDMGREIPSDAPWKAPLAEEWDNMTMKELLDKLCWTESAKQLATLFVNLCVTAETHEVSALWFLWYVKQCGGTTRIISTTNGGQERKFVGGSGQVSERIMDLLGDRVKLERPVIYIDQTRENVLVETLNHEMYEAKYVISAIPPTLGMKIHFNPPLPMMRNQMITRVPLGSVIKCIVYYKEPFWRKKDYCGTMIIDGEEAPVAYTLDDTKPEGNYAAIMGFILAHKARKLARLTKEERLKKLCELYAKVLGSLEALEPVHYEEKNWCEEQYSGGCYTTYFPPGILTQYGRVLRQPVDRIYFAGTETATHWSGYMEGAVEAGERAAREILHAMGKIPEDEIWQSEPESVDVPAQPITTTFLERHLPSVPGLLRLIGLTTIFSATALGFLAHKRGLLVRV
Source text: (§1) Human recombinant monoamine oxidase proteins MAO-A and MAO-B were purchased from Sigma Aldrich. MAOs catalyze the oxidative deamination of primary, secondary and tertiary amines. In order to monitor MAO enzymatic activities and/or their inhibition rate by inhibitor(s) of interest, a fluorescence-based (inhibitor)-screening assay was set up. 3-(2-Aminophenyl)-3-oxopropanamine (kynuramine dihydrobromide, Sigma Aldrich), a non fluorescent compound was chosen as a substrate. Kynuramine is a non-specific substrate for both MAO-A and MAO-B activities. While undergoing oxidative deamination by MAO activities, kynuramine is converted into 4-hydroxyquinoline (4-HQ), a resulting fluorescent product.
(§2) The monoamine oxidase activity was estimated by measuring the conversion of kynuramine into 4-hydroxyquinoline. Assays were conducted in 96-well black plates with clear bottom (Corning) in a final volume of 100 μL. The assay buffer was 100 mM HEPES, pH 7.5. Each experiment was performed in triplicate within the same experiment.
(§3) Briefly, a fixed amount of MAO (0.25 μg for MAO-A and 0.5 μg for MAO-B) was incubated on ice for 15 minutes in the reaction buffer, in the absence and/or in the presence of various concentrations of inhibitor (e.g., from 0 to 50 μM, depending on the inhibitor strength). Tranylcypromine (Biomol International) was used as a control for inhibition.
(§4) After leaving the enzyme(s) interacting with the inhibitor, 60 to 90 μM of kynuramine was added to each reaction for MAO-B and MAO-A assay respectively, and the reaction was left for 1 hour at 37° C. in the dark. The oxidative deamination of the substrate was stopped by adding 50 μL (v/v) of NaOH 2N. The conversion of kynuramine to 4-hydroxyquinoline, was monitored by fluorescence (excitation at 320 nm, emission at 360 nm) using a microplate reader (Infinite 200, Tecan). Arbitrary units were used to measure levels of fluorescence produced in the absence and/or in the presence of inhibitor.
(§5) The maximum of oxidative deamination activity was obtained by measuring the amount of 4-hydroxyquinoline formed from kynuramine deamination in the absence of inhibitor and corrected for background fluorescence in the absence of MAO enzymes. The Ki (IC50) of each inhibitor was determined at Vmax/2.

[3] = target: T3, Human recombinant monoamine oxidase MAO-A (Homo sapiens, UniProt P21397); assay: Monoamine oxidase assay, kynuramine fluorescence, MAO-A; conditions: Ki (IC50) determined at Vmax/2; range class
T3 construct: purchased Sigma Aldrich
T3 sequence (P21397 1-527): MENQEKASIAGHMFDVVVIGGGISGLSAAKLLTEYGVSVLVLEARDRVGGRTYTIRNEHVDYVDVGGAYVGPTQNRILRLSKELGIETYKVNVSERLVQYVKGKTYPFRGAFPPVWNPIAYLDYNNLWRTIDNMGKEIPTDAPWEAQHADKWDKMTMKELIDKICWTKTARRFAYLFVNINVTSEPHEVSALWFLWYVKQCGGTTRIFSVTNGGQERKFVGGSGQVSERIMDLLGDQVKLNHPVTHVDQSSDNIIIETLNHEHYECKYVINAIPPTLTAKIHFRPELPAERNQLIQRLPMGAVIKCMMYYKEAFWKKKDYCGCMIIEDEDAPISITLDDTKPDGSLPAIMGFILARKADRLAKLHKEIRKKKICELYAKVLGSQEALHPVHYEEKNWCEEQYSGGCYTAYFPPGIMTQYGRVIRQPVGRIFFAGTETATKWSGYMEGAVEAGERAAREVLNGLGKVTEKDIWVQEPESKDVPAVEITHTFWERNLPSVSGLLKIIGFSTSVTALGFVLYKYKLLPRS
Source text: as §1, §2, §3, §4, §5

Compound | Ki [1] [nM] | Ki [2] [nM] | Ki [3] [nM]
N[C@H]1C[C@@H]1c1ccc(Nc2ccc(Cl)cc2)nc1 (racemic) [Example 2, 5-((trans)-2-aminocyclopropyl)-N-(4-chlorophenyl)pyridin-2-amine hydrochloride] | 100 to 1000 | 1 to 100 | 1000 to 40000
Cc1cccc(CNc2ccc([C@H]3C[C@@H]3N)cn2)c1 (racemic) [Example 16, 5-((trans)-2-aminocyclopropyl)-N-(3-methylbenzyl)pyridin-2-amine hydrochloride] | 100 to 1000 | 1000 to 40000 | 1000 to 40000
N[C@H]1C[C@@H]1c1ccc(Nc2cccc(Cl)c2)nc1 (racemic) [Example 1, 5-((trans)-2-aminocyclopropyl)-N-(3-chlorophenyl)pyridin-2-amine hydrochloride] | 100 to 1000 | 1 to 100 | 1000 to 40000
COc1cccc(Nc2ccc([C@H]3C[C@@H]3N)cn2)c1 (racemic) [Example 4, 5-((trans)-2-aminocyclopropyl)-N-(3-methoxyphenyl)pyridin-2-amine hydrochloride] | 100 to 1000 | 1000 to 40000 | 1000 to 40000
COc1ccc(Nc2ccc([C@H]3C[C@@H]3N)cn2)cc1 (racemic) [Example 5, 5-((trans)-2-aminocyclopropyl)-N-(4-methoxyphenyl)pyridin-2-amine hydrochloride] | 100 to 1000 | 100 to 1000 | 1000 to 40000
N[C@H]1C[C@@H]1c1ccc(NCc2ccc(C(F)(F)F)cc2)nc1 (racemic) [Example 15, 5-((trans)-2-aminocyclopropyl)-N-(4-(trifluoromethyl)benzyl)pyridin-2-amine hydrochloride] | 100 to 1000 | 1000 to 40000 | 1000 to 40000
Cc1ccc(CNc2ccc([C@H]3C[C@@H]3N)cn2)cc1 (racemic) [Example 17, 5-((trans)-2-aminocyclopropyl)-N-(4-methylbenzyl)pyridin-2-amine hydrochloride] | 100 to 1000 | 1000 to 40000 | 1000 to 40000
Cc1ccc(Nc2ccc([C@H]3C[C@@H]3N)cn2)cc1 (racemic) [Example 6, 5-((trans)-2-aminocyclopropyl)-N-p-tolylpyridin-2-amine hydrochloride] | 100 to 1000 | 1000 to 40000 | 1000 to 40000
Cc1cccc(Nc2ccc([C@H]3C[C@@H]3N)cn2)c1 (racemic) [Example 7, 5-((trans)-2-aminocyclopropyl)-N-m-tolylpyridin-2-amine hydrochloride] | 100 to 1000 | 100 to 1000 | 1000 to 40000
N#Cc1cccc(Nc2ccc([C@H]3C[C@@H]3N)cn2)c1 (racemic) [Example 9, 3-(5-((trans)-2-aminocyclopropyl)pyridin-2-ylamino)benzonitrile hydrochloride] | 100 to 1000 | 100 to 1000 | 1000 to 40000
NC(=O)c1cccc(Nc2ccc([C@H]3C[C@@H]3N)cn2)c1 (racemic) [Example 10, 3-(5-((trans)-2-aminocyclopropyl)pyridin-2-ylamino)benzamide hydrochloride] | 100 to 1000 | 1000 to 40000 | 1000 to 40000
N[C@H]1C[C@@H]1c1ccc(Nc2ccc(C(F)(F)F)cc2)nc1 (racemic) [Example 3, 5-((trans)-2-aminocyclopropyl)-N-(4-(trifluoromethyl)phenyl)pyridin-2-amine hydrochloride] | 100 to 1000 | 100 to 1000 | 1000 to 40000
N#Cc1cccc(CNc2ccc([C@H]3C[C@@H]3N)cn2)c1 (racemic) [Example 18, 3-((5-((trans)-2-aminocyclopropyl)pyridin-2-ylamino)methyl)benzonitrile hydrochloride] | 100 to 1000 | 1000 to 40000 | 1000 to 40000
N[C@H]1C[C@@H]1c1ccc(NCc2cccc(Cl)c2)nc1 (racemic) [Example 12, 5-((trans)-2-aminocyclopropyl)-N-(3-chlorobenzyl)pyridin-2-amine hydrochloride] | 100 to 1000 | 1000 to 40000 | 1000 to 40000
